Tested on: human hepatoma Huh-7 cell line harboring a HCV replicon
Assay: HCV replicon assay (inhibition of viral replication, luciferase)
Type: cell-based
Settings: Hepatitis C virus, 72 h; 2 μM; Huh-7 HCV replicon cells, 3 days incubation; inhibition of viral replication; read-out: % inhibition at 2 μM
Procedure: The anti-HCV activity of the compounds of this invention was tested in a human hepatoma Huh-7 cell line harboring a HCV replicon. The assay comprised the following steps:
Step 1: Compound Preparation and Serial Dilution.
Serial dilution was performed in 100% DMSO in a 384-well plate. A solution containing a compound at 225-fold concentration of the starting final serial dilution concentration was prepared in 100% DMSO and 15 uL added to the pre-specified wells in column 3 or 13 of a polypropylene 384-well plate. The rest of the 384-well plate was filled with 10 uL 100% DMSO except for columns 23 and 24, where 10 uL of 500 uM a HCV protease inhibitor (ITMN-191) in 100% DMSO was added. The HCV protease inhibitor was used a control of 100% inhibition of HCV replication. The plate was then placed on a Biomek FX Workstation to start the serial dilution. The serial dilution was performed for ten cycles of 3-fold dilution from column 3 to 12 or from column 13 to 22.
Step 2: Cell Culture Plate Preparation and Compound Addition
To each well of a black polypropylene 384-well plate, 90 μL of cell media containing 1600 suspended Huh-7 HCV replicon cells was added with a Biotek uFlow Workstation. A volume of 0.4 μL of the compound solution was transferred from the serial dilution plate to the cell culture plate on a Biomek FX Workstation. The DMSO concentration in the final assay condition was 0.44%. The plates were incubated for 3 days at 37° C. with 5% CO2 and 85% humidity.
Step 3: Detection of Cytotoxicity and Inhibition of Viral Replication
a) Assessment of cytotoxicity: The media in the 384-well cell culture plate was aspirated with a Biotek EL405 plate-washer. A volume of 50 μL of a solution containing 400 nM Calcein AM in 100% PBS was added to each well of the plate with a Biotek uFlow Workstation. The plate was incubated for 30 minutes at room temperature before the fluorescence signal ([…]) was measured with a Perkin Elmer Envision Plate Reader.
b) Assessment of inhibition of viral replication: The calcein-PBS solution in the 384-well cell culture plate was aspirated with a Biotek EL405 plate-washer. A volume of 20 μL of Dual-Glo luciferase buffer (Promega, Dual-Glo Luciferase Assay Reagent, cat. #E298B) was added to each well of the plate with a Biotek uFlow Workstation. The plate was incubated for 10 minutes at room temperature. A volume of 20 μL of a solution containing 1:100 mixture of Dual-Glo Stop & Glo substrate(Promega, Dual-Glo Luciferase Assay Reagent, cat. #E313B) and Dual-Glo Stop & Glo buffer (Promega, Dual-Glo Luciferase Assay Reagent, cat. #E314B) was then added to each well of the plate with a Biotek uFlow Workstation. The plate was incubated at room temperature for 10 minutes before the luminescence signal was measured with a Perkin Elmer Envision Plate Reader.
The percent cytotoxicity was determined by calcein AM conversion to fluorescent product. The average fluorescent signal from the DMSO control wells were defined as 100% nontoxic. The individual fluorescent signal from testing compound treated well was divided by the average signal from DMSO control wells and then multiplied by 100% to get the percent viability. The percent anti-HCV replication activity was determined by the luminescence signal from the testing well compared to DMSO controls wells. The background signal was determined by the average luminescence signal from the HCV protease inhibitor treated wells and was subtracted from the signal from the testing wells as well as the DMSO control wells. Following 3-fold serial dilutions, the EC50 and CC50 values were calculated by fitting % inhibition at each concentration to the following equation: % inhibition=100%[(EC50/[l])^b+1]
Where b is Hill's coefficient. See, for reference, Hill, A. V., The Possible Effects of the Aggregation of the Molecules of Hæmoglobin on its Dissociation Curves, J. Physiol. 40: iv-vii. (1910). […]

SMILES: CC(C)(C)C#Cc1cc(N(C(=O)[C@H]2CC[C@H](C)CC2)C2CCC(NC(=O)O[C@@H]3CCCN(C(=O)OC(C)(C)C)C3)CC2)c(C(=O)O)s1 (stereo partly drawn) [Compound 46, 3-(R)-{4-[[2-carboxy-5-(3,3-dimethyl-but-1-ynyl)-thiophen-3-yl]-(4-trans-methyl-cyclohexanecarbonyl)-amino]-cyclohexylcarbamoyloxy}-piperidine-1-carboxylic acid tert-butyl ester]
- inhibition at 2 µM: 97%

SMILES: CC(C)(C)C#Cc1cc(N(C(=O)[C@H]2CC[C@H](C)CC2)C2CCC(NC(=O)O[C@@H]3CCCNC3)CC2)c(C(=O)O)s1 (stereo partly drawn) [Compound 47, 5-(3,3-dimethyl-but-1-ynyl)-3-{(4-trans-methyl-cyclohexanecarbonyl)-[4-(piperidin-3-(R)-yloxycarbonylamino)-cyclohexyl]-amino}-thiophene-2-carboxylic acid]
- inhibition at 2 µM: 99.9%

SMILES: CC(C)(C)C#Cc1cc(N(C(=O)[C@H]2CC[C@H](C)CC2)C2CCC(NC(=O)O[C@@H]3CCOC3)CC2)c(C(=O)O)s1 (stereo partly drawn) [Compound 48, 5-(3,3-dimethyl-but-1-ynyl)-3-{(4-trans-methyl-cyclohexanecarbonyl)-[4-(tetrahydro-furan-3-(R)-yloxycarbonylamino)-cyclohexyl]-amino}-thiophene-2-carboxylic acid]
- inhibition at 2 µM: 100%

SMILES: CC(C)(C)C#Cc1cc(N(C(=O)[C@H]2CC[C@H](C)CC2)C2CCC(NC(=O)O[C@H]3CNC(=O)C3)CC2)c(C(=O)O)s1 (stereo partly drawn) [Compound 49, 5-(3,3-dimethyl-but-1-ynyl)-3-{(4-trans-methyl-cyclohexanecarbonyl)-[4-(5-oxo-pyrrolidin-3-(S)-yloxycarbonylamino)-cyclohexyl]-amino}-thiophene-2-carboxylic acid]
- inhibition at 2 µM: 99.2%

SMILES: CC(C)(C)C#Cc1cc(N(C(=O)[C@H]2CC[C@H](C)CC2)C2CCC(NC(=O)O[C@@H]3CCNC3=O)CC2)c(C(=O)O)s1 (stereo partly drawn) [Compound 50, 5-(3,3-dimethyl-but-1-ynyl)-3-{(4-trans-methyl-cyclohexanecarbonyl)-[4-(2-oxo-pyrrolidin-3-(R)-yloxycarbonylamino)-cyclohexyl]-amino}-thiophene-2-carboxylic acid]
- inhibition at 2 µM: 99.9%

SMILES: CC(C)(C)C#Cc1cc(N(C(=O)[C@H]2CC[C@H](C)CC2)C2CCN(C(=O)O[C@@H]3CCCN(C(=O)OC(C)(C)C)C3)CC2)c(C(=O)O)s1 [Compound 51, Boc protected 4-[[2-carboxy-5-(3,3-dimethyl-but-1-ynyl)-thiophen-3-yl]-(4-trans-methyl-cyclohexanecarbonyl)-amino]-piperidine-1-carboxylic acid piperidin-3-(R)-yl ester]
- inhibition at 2 µM: 85.5%

SMILES: CC(C)(C)C#Cc1cc(N(C(=O)[C@H]2CC[C@H](C)CC2)C2CCN(C(=O)O[C@@H]3CCCNC3)CC2)c(C(=O)O)s1 [Compound 52, 4-[[2-carboxy-5-(3,3-dimethyl-but-1-ynyl)-thiophen-3-yl]-(4-trans-methyl-cyclohexanecarbonyl)-amino]-piperidine-1-carboxylic acid piperidin-3-(R)-yl ester]
- inhibition at 2 µM: 93.5%

SMILES: CC(C)(C)C#Cc1cc(N(C(=O)[C@H]2CC[C@H](C)CC2)C2CCN(C(=O)O[C@@H]3CCOC3)CC2)c(C(=O)O)s1 [Compound 53, 4-[[2-carboxy-5-(3,3-dimethyl-but-1-ynyl)-thiophen-3-yl]-(4-trans-methyl-cyclohexanecarbonyl)-amino]-piperidine-1-carboxylic acid tetrahydro-furan-3-(R)-yl ester]
- inhibition at 2 µM: 99.9%

SMILES: CC(C)(C)C#Cc1cc(N(C(=O)[C@H]2CC[C@H](C)CC2)C2CCN(C(=O)OC3CCOCC3)CC2)c(C(=O)O)s1 [Compound 54, 4-[[2-carboxy-5-(3,3-dimethyl-but-1-ynyl)-thiophen-3-yl]-(4-trans-methyl-cyclohexanecarbonyl)-amino]-piperidine-1-carboxylic acid tetrahydro-pyran-4-yl ester]
- inhibition at 2 µM: 99.8%

SMILES: CC(C)(C)C#Cc1cc(N(C(=O)[C@H]2CC[C@H](C)CC2)C2CCN(C(=O)O[C@H]3CNC(=O)C3)CC2)c(C(=O)O)s1 [Compound 55, 4-[[2-carboxy-5-(3,3-dimethyl-but-1-ynyl)-thiophen-3-yl]-(4-trans-methyl-cyclohexanecarbonyl)-amino]-piperidine-1-carboxylic acid 5-oxo-pyrrolidin-3-(R)-yl ester]
- inhibition at 2 µM: 87.9%

SMILES: CC(C)(C)C#Cc1cc(N(C(=O)[C@H]2CC[C@H](C)CC2)C2CCN(C(=O)O[C@@H]3CNC(=O)C3)CC2)c(C(=O)O)s1 [Compound 56, 4-[[2-carboxy-5-(3,3-dimethyl-but-1-ynyl)-thiophen-3-yl]-(4-trans-methyl-cyclohexanecarbonyl)-amino]-piperidine-1-carboxylic acid 5-oxo-pyrrolidin-3-(S)-yl ester]
- inhibition at 2 µM: 92.8%

SMILES: CC(C)(C)C#Cc1cc(N(C(=O)[C@H]2CC[C@H](C)CC2)C2CCN(C(=O)O[C@H]3CCNC3=O)CC2)c(C(=O)O)s1 [Compound 57, 4-[[2-carboxy-5-(3,3-dimethyl-but-1-ynyl)-thiophen-3-yl]-(4-methyl-cyclohexanecarbonyl)-amino]-piperidine-1-carboxylic acid 2-oxo-pyrrolidin-3-(S)-yl ester]
- inhibition at 2 µM: 78.2%

SMILES: C[C@@H](CCNC(=O)O[C@H]1CO[C@H]2OCC[C@H]21)N(c1cc(C#CC(C)(C)C)sc1C(=O)O)C(=O)[C@H]1CC[C@H](C)CC1 [Compound 64, 5-(3,3-Dimethyl-but-1-ynyl)-3-[[3-(hexahydro-furo[2,3-b]furan-3-yloxycarbonylamino)-1-(S)-methyl-propyl]-(trans-4-methyl-cyclohexanecarbonyl)-amino]-thiophene-2-carboxylic acid]
- inhibition at 2 µM: 100%

SMILES: C[C@@H](CCNC(=O)O[C@@H]1CCOC1)N(c1cc(C#CC(C)(C)C)sc1C(=O)O)C(=O)[C@H]1CC[C@H](C)CC1 [Compound 65, 5-(3,3-dimethyl-but-1-ynyl)-3-[[trans-4-methyl-cyclohexanecarbonyl)-[1-(S)-methyl-3-(tetrahydrofuran-3-yloxycarbonylamino)-propyl]-amino]-thiophene-2-carboxylic acid]
- inhibition at 2 µM: 99.9%

SMILES: CC(C)(C)C#Cc1cc(N(C(=O)[C@H]2CC[C@H](C)CC2)C2CCC(NC(=O)O[C@H]3CO[C@H]4OCC[C@H]43)CC2)c(C(=O)O)s1 (stereo partly drawn) [Compound 66, 5-(3,3-Dimethyl-but-ynyl)-3-[[4-(hexahydro-furo[2,3-b]furan-3-yloxycarbonylamino)-cyclohexyl]-(trans-4-methyl-cyclohexanecarbonyl)-amino]-thiophene-2-carboxylic acid]
- inhibition at 2 µM: 99.9%

SMILES: CC(C)(C)C#Cc1cc(N(C(=O)[C@H]2CC[C@H](C)CC2)[C@H]2CCN(C(=O)OC3(C)CCNC3)C2)c(C(=O)O)s1 (stereo partly drawn) [Compound 68, 3-(S)-[[2-Carboxy-5-(3,3-dimethyl-but-1-ynyl)-thiophen-3-yl]-(trans-4-methylcyclohexanecarbonyl)-amino]-pyrrolidine-1-carbocylic-acid-3-methyl-pyrrolidin-3-yl-ester]
- inhibition at 2 µM: 98.5%

SMILES: CC(C)(C)C#Cc1cc(N(C(=O)[C@H]2CC[C@H](C)CC2)[C@H]2CCN(C(=O)OC3(C)CN(C(=O)OC(C)(C)C)C3)C2)c(C(=O)O)s1 [Compound 69, 3-[[2-carboxy-5-(3,3-dimethyl-but-1-ynyl)-thiophen-3-yl]-(trans-4-methyl-cyclohexanecarbonyl)-3-(S)-amino]-pyrrolidine-1-carboxylic acid 1-tert-butoxycarbonyl-3-methyl-azetidin-3-yl ester]
- inhibition at 2 µM: 99.5%

From patent publication US8884030B2, “Inhibitors of Flaviviridae viruses” (priority 2010, dated 2014)
